Assay results from patent US10485235B2, “Aryloxypyrimidinyl ethers as herbicides” (FMC Corporation, priority 2015, dated 2019).

Key:
Assay type in all cases: in vivo
rice (Oryza sativa) = experiment: Test B flooded paddy test, rice; details: Oryza sativa; 250 g ai/ha, Flood; visual rating after 13 to 15 days; scale 0 to 100, 0 is no effect, 100 is complete control; read-out: Plant response rating, Rice
Summary of the method: (§1)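 2-leaf plants; flood to 3 cm, dose into water, hold depth; greenhouse 13–15 d; visual score 0–100 vs controls; dash = not tested.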

[1] = test system: ryegrass, Italian (Italian ryegrass, Lolium multiflorum); experiment: Test A preemergence, Italian ryegrass; details: Lolium multiflorum, pre-emergence, 240 h, Preemergence, 0 to 100 scale (0 no effect, 100 complete control), read-out: Plant response rating, Ryegrass, Italian; for pest or weed control at 125 g/ha: 125 g ai/ha
Summary of the method: (§2)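 Ratings run 0–100, where 100 is complete control, and were scored visually against untreated plants about 10 days after treatment under greenhouse conditions. Formulated chemicals were sprayed either onto the soil surface after seeding (preemergence) or onto one- to two-leaf seedlings 2–10 cm high (postemergence).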

[2] = test system: wheat (Triticum aestivum); experiment: Test A postemergence, wheat; details: Triticum aestivum, post-emergence, 240 h, postemergence, 0 to 100 scale, 0 is no effect, 100 is complete control, approximately 10 days, read-out: Plant response rating, Wheat; for plant injury at 125 g/ha: 125 g ai/ha
Summary of the method: as §2

kochia (Kochia scoparia) [3] = experiment: Test A postemergence, kochia; details: Bassia scoparia, post-emergence, 240 h, postemergence, 0 to 100 scale, 0 is no effect, 100 is complete control, approximately 10 days, read-out: Plant response rating, Kochia; for pest or weed control at 125 g/ha: 125 g ai/ha
Summary of the method: as §2

[4] = test system: barnyardgrass (Echinochloa crus-galli); experiment: Test B flooded paddy test, barnyardgrass; details: Echinochloa crus-galli; 250 g ai/ha, Flood; visual rating after 13 to 15 days; scale 0 to 100, 0 is no effect, 100 is complete control; read-out: Plant response rating, Barnyardgrass
Summary of the method: as §1

[5] = test system: sedge, umbrella (small-flower umbrella sedge, Cyperus difformis); experiment: Test B flooded paddy test, umbrella sedge; details: Cyperus difformis; 250 g ai/ha, Flood; visual rating after 13 to 15 days; scale 0 to 100, 0 is no effect, 100 is complete control; read-out: Plant response rating, Sedge, Umbrella
Summary of the method: as §1

[6] = test system: galium (catchweed bedstraw, Galium aparine); experiment: Test A postemergence, galium; details: Galium, post-emergence, 240 h, postemergence, 0 to 100 scale, 0 is no effect, 100 is complete control, approximately 10 days, read-out: Plant response rating, Galium; for pest or weed control at 125 g/ha: 125 g ai/ha
Summary of the method: as §2

[7] = test system: foxtail, giant (giant foxtail, Setaria faberii); experiment: Test A preemergence, giant foxtail; details: Setaria faberi, pre-emergence, 240 h, Preemergence, 0 to 100 scale (0 no effect, 100 complete control), read-out: Plant response rating, Foxtail, Giant; for pest or weed control at 125 g/ha: 125 g ai/ha
Summary of the method: as §2

[8] = test system: pigweed (Amaranthus retroflexus); experiment: Test A postemergence, pigweed; details: Amaranthus retroflexus, post-emergence, 240 h, postemergence, 0 to 100 scale, 0 is no effect, 100 is complete control, approximately 10 days, read-out: Plant response rating, Pigweed; for pest or weed control at 125 g/ha: 125 g ai/ha
Summary of the method: as §2

[9] = test system: foxtail, giant (giant foxtail, Setaria faberii); experiment: Test A postemergence, giant foxtail; details: Setaria faberi, post-emergence, 240 h, postemergence, 0 to 100 scale, 0 is no effect, 100 is complete control, approximately 10 days, read-out: Plant response rating, Foxtail, Giant; for pest or weed control at 125 g/ha: 125 g ai/ha
Summary of the method: as §2

[10] = test system: blackgrass (Alopecurus myosuroides); experiment: Test A postemergence, blackgrass; details: Alopecurus myosuroides, post-emergence, 240 h, postemergence, 0 to 100 scale, 0 is no effect, 100 is complete control, approximately 10 days, read-out: Plant response rating, Blackgrass; for pest or weed control at 125 g/ha: 125 g ai/ha
Summary of the method: as §2

kochia (Kochia scoparia) [11] = experiment: Test A preemergence, kochia; details: Bassia scoparia, pre-emergence, 240 h, Preemergence, 0 to 100 scale (0 no effect, 100 complete control), read-out: Plant response rating, Kochia; for pest or weed control at 125 g/ha: 125 g ai/ha
Summary of the method: as §2

[12] = test system: ryegrass, Italian (Italian ryegrass, Lolium multiflorum); experiment: Test A postemergence, Italian ryegrass; details: Lolium multiflorum, post-emergence, 240 h, postemergence, 0 to 100 scale, 0 is no effect, 100 is complete control, approximately 10 days, read-out: Plant response rating, Ryegrass, Italian; for pest or weed control at 125 g/ha: 125 g ai/ha
Summary of the method: as §2

[13] = test system: pigweed (Amaranthus retroflexus); experiment: Test A preemergence, pigweed; details: Amaranthus retroflexus, pre-emergence, 240 h, Preemergence, 0 to 100 scale (0 no effect, 100 complete control), read-out: Plant response rating, Pigweed; for pest or weed control at 125 g/ha: 125 g ai/ha
Summary of the method: as §2

Row | Compound | plant injury at 250 g/ha (rice (Oryza sativa)) [%] | pest or weed control at 125 g/ha [1] [%] | plant injury at 125 g/ha [2] [%] | pest or weed control at 125 g/ha (kochia (Kochia scoparia) [3]) [%] | pest or weed control at 250 g/ha [4] [%] | pest or weed control at 250 g/ha [5] [%] | pest or weed control at 125 g/ha [6] [%] | pest or weed control at 125 g/ha [7] [%] | pest or weed control at 125 g/ha [8] [%] | pest or weed control at 125 g/ha [9] [%] | pest or weed control at 125 g/ha [10] [%] | pest or weed control at 125 g/ha (kochia (Kochia scoparia) [11]) [%] | pest or weed control at 125 g/ha [12] [%] | pest or weed control at 125 g/ha [13] [%] | further results
1 | N#Cc1cccc(Oc2ncc(Cl)cn2)c1OC/C=C/C(F)(F)F [Compound 8, 3-[(5-chloro-2-pyrimidinyl)oxy]-2-[[(2E)-4,4,4-trifluoro-2-buten-1-yl]oxy]benzonitrile] | 0 | 30 | 10 | 100 | 0 | 100 | 90 | 100 | 100 | 90 | 40 | 100 | 60 | 100 | pest or weed control at 31 g/ha ([1]; 31 g ai/ha): 0%; plant injury at 31 g/ha ([2]; 31 g ai/ha): 0%; pest or weed control at 31 g/ha (kochia (Kochia scoparia) [3]; 31 g ai/ha): 80%; pest or weed control at 31 g/ha ([6]; 31 g ai/ha): 40%; pest or weed control at 31 g/ha ([7]; 31 g ai/ha): 100%; pest or weed control at 31 g/ha ([8]; 31 g ai/ha): 90%; pest or weed control at 31 g/ha ([9]; 31 g ai/ha): 20%; pest or weed control at 31 g/ha ([10]; 31 g ai/ha): 20%; pest or weed control at 31 g/ha (kochia (Kochia scoparia) [11]; 31 g ai/ha): 20%; pest or weed control at 31 g/ha ([12]; 31 g ai/ha): 10%; pest or weed control at 31 g/ha ([13]; 31 g ai/ha): 100%
2 | N#Cc1cccc(Oc2ncc(Cl)cn2)c1OCC(F)(F)C(F)(F)F [Compound 10, 3-[(5-chloro-2-pyrimidinyl)oxy]-2-(2,2,3,3,3-pentafluoropropoxy)benzonitrile] | 20 | 40 | 30 | 100 | 50 | 85 | 90 | 100 | 100 | 100 | 90 | 100 | 30 | 100 | pest or weed control at 500 g/ha ([1]; 500 g ai/ha): 100%; plant injury at 500 g/ha ([2]; 500 g ai/ha): 90%; pest or weed control at 500 g/ha (kochia (Kochia scoparia) [3]; 500 g ai/ha): 100%; pest or weed control at 500 g/ha ([6]; 500 g ai/ha): 100%; pest or weed control at 500 g/ha ([7]; 500 g ai/ha): 100%; pest or weed control at 500 g/ha ([8]; 500 g ai/ha): 100%; pest or weed control at 500 g/ha ([9]; 500 g ai/ha): 100%; pest or weed control at 500 g/ha ([10]; 500 g ai/ha): 100%; pest or weed control at 500 g/ha (kochia (Kochia scoparia) [11]; 500 g ai/ha): 100%; pest or weed control at 500 g/ha ([12]; 500 g ai/ha): 90%; pest or weed control at 500 g/ha ([13]; 500 g ai/ha): 100%
